In DBAASP:
In brackets after ≈: the same amount, converted by molar mass.

What was measured:
Assay in all cases: ≥ marks a high value that may be exact or a test limit, other limits are often not marked, values filed in µg/mL are converted to µM
[1] = system: Staphylococcus carnosus KHS
[2] = system: Rhodococcus rhodochrous X15
[3] = system: Bacillus licheniformis X39
[4] = system: Staphylococcus aureus ATCC 2592
[5] = system: Escherichia coli DSM 1103
[6] = system: Klebsiella pneumoniae K6 ATCC 700603
[7] = system: Agrobacterium tumefaciens ATCC 15955
[8] = system: Salmonella enterica subsp. enterica serovar Typhi S5
Escherichia coli DC2 = system: Escherichia coli DC2
[9] = system: Klebsiella pneumoniae DSM 681
Escherichia coli D31 = system: Escherichia coli D31
Escherichia coli 45849 = system: Escherichia coli 45849
[10] = system: Klebsiella pneumoniae 123132
[11] = system: Micrococcus luteus ATCC 10240
Escherichia coli BL21AI = system: Escherichia coli BL21AI
[12] = system: Salmonella enterica subsp. enterica serovar Typhimurium ATCC 700408
[13] = system: Pseudomonas aeruginosa CUN 4158-02
[14] = system: Staphylococcus aureus ATCC 43300
Staphylococcus aureus = system: Staphylococcus aureus
[15] = system: Acinetobacter baumannii ATCC 19606
[16] = system: Escherichia coli ATCC 25922
[17] = system: Staphylococcus aureus ΔmprFpRBsyn
Yersinia pestis KIM pYV = system: Yersinia pestis KIM pYV
[18] = system: Bordetella bronchiseptica CUN 11844-99
[19] = system: Staphylococcus aureus ΔmprF
[20] = system: Brucella abortus 9.49 (per-)
[21] = system: Acinetobacter baumannii KCTC 2508
[22] = system: Escherichia coli ATCC 33694
[23] = system: Bacillus subtilis ATCC 6633
Acinetobacter baumannii = system: Acinetobacter baumannii
Proteus mirabilis = system: Proteus mirabilis
[24] = system: Staphylococcus epidermidis
[25] = system: Candida albicans ATCC 90112
Streptococcus pyogenes = system: Streptococcus pyogenes
[26] = system: Staphylococcus aureus ATCC 25923
[27] = system: Stenotrophomonas maltophilia ATCC 13637
[28] = system: Pseudomonas aeruginosa ATCC 27853
Escherichia coli D21 = system: Escherichia coli D21
Micrococcus luteus Ml11 = system: Micrococcus luteus Ml11
[29] = system: Pseudomonas aeruginosa OT97
[30] = system: Proteus vulgaris OX19 ATCC 6380
[31] = system: Staphylococcus aureus JC-1
Bacillus megaterium Bm11 = system: Bacillus megaterium Bm11
[32] = system: Shigella flexneri ATCC 203
[33] = system: Fusarium haematococcum 160.2.2
[34] = system: Neurospora crassa CBS 327-54

For `CC[C@H](C)[C@H](NC(=O)[C@H](CC(C)C)NC(=O)CNC(=O)[C@H](C)NC(=O)[C@H](CC(C)C)NC(=O)[C@@H](N)Cc1ccccc1)C(=O)NCC(=O)NCC(=O)N[C@@H](CC(C)C)C(=O)N[C@@H](C)C(=O)N[C@@H](CCCCN)C(=O)N[C@@H](CCSC)C(=O)N[C@@H](CC(C)C)C(N)=O` [FLAGLIGGLAKML], the MIC [1] was 9.5 µM (≈ 12.4 µg/mL), the MIC [2] was 4.8 µM (≈ 6.25 µg/mL) and the MIC [3] was 19 µM (≈ 24.8 µg/mL). For the same molecule, the MIC [4] was 9.5 µM (≈ 12.4 µg/mL).

With `CC[C@H](C)[C@H](NC(=O)[C@H](CCCN=C(N)N)NC(=O)[C@@H]1CCCN1C(=O)[C@H](Cc1cnc[nH]1)NC(=O)[C@@H]1CCCN1C(=O)[C@@H]1CCCN1C(=O)[C@H](CCCN=C(N)N)NC(=O)[C@@H]1CCCN1C(=O)[C@H](CCC(N)=O)NC(=O)[C@@H]1CCCN1C(=O)[C@H](CC(C)C)NC(=O)[C@H](Cc1ccc(O)cc1)NC(=O)[C@@H](NC(=O)[C@@H]1CCCN1C(=O)[C@H](CCCN=C(N)N)NC(=O)[C@H](CC(N)=O)NC(=O)[C@H](CC(N)=O)NC(=O)CN)C(C)C)C(N)=O` [GNNRPVYLPQPRPPHPRI] the MIC [5] was 1.85 µM (≈ 3.91 µg/mL), the MIC [6] was ≥ 60.7 µM and the MIC [7] was 1.23 µM (≈ 2.6 µg/mL). It also gave an MIC [8] of 15.2 µM (≈ 32 µg/mL), an MIC (Escherichia coli DC2) of 3.7 µM (≈ 7.81 µg/mL) and an MIC [9] of 7.41 µM (≈ 15.6 µg/mL). For the same molecule, the MIC (Escherichia coli D31) was ≥ 60.7 µM, the MIC (Escherichia coli 45849) was 7.59 µM (≈ 16 µg/mL) and the MIC [10] was 15.2 µM (≈ 32 µg/mL). It also gave an MIC [11] of 0.925 µM (≈ 1.95 µg/mL), an MIC (Escherichia coli BL21AI) of 1.85 µM (≈ 3.91 µg/mL) and an MIC [12] of 1.9 µM (≈ 4 µg/mL).

`CC[C@H](C)[C@H](NC(=O)[C@H](CCCN=C(N)N)NC(=O)[C@H](CCCN=C(N)N)NC(=O)[C@H](CC(C)C)NC(=O)[C@H](Cc1ccccc1)NC(=O)[C@@H](NC(=O)[C@H](CCCN=C(N)N)NC(=O)[C@H](CCSC)NC(=O)[C@@H](NC(=O)[C@H](CCCCN)NC(=O)[C@H](CCCCN)NC(=O)[C@H](CO)NC(=O)[C@@H](NC(=O)[C@@H](N)CCCCN)[C@@H](C)CC)[C@@H](C)CC)[C@@H](C)O)C(=O)N[C@@H](CO)C(=O)N[C@@H](CCCCN)C(=O)N[C@@H](CC(=O)O)C(=O)N[C@H](C(=O)N[C@@H](CC(C)C)C(=O)N[C@H](C(=O)NCC(=O)N[C@@H](CCCCN)C(=O)N[C@@H](CCCCN)C(N)=O)[C@@H](C)O)[C@@H](C)CC` [KISKKIMRTFLRRISKDILTGKK] was tested, and the MIC [13] was 1.45 µM (≈ 4 µg/mL), the MIC [14] was > 92.7 µM and the MIC (Staphylococcus aureus) was 11.6 µM (≈ 32 µg/mL). It also gave an MIC [15] of 1.45 µM (≈ 4 µg/mL), an MIC [16] of 1.45 µM (≈ 4 µg/mL) and an MIC [17] of 1.45 µM (≈ 4 µg/mL). The MIC (Yersinia pestis KIM pYV) was ≥ 46.4 µM, the MIC [18] was 0.362 µM (≈ 1 µg/mL) and the MIC [19] was 1.45 µM (≈ 4 µg/mL). The MIC [20] was 0.724 µM (≈ 2 µg/mL).

`CC[C@H](C)[C@H](NC(=O)CNC(=O)[C@@H](NC(=O)[C@H](CCCCN)NC(=O)[C@H](CCCCN)NC(=O)[C@H](Cc1ccccc1)NC(=O)[C@H](CC(C)C)NC(=O)[C@H](CCCCN)NC(=O)[C@H](Cc1c[nH]c2ccccc12)NC(=O)[C@@H](N)CCCCN)[C@@H](C)CC)C(=O)NCC(=O)N[C@@H](C)C(=O)N[C@H](C(=O)N[C@@H](CC(C)C)C(=O)N[C@@H](CCCCN)C(=O)N[C@H](C(=O)N[C@@H](CC(C)C)C(=O)N[C@H](C(=O)N[C@H](C(=O)NCC(N)=O)[C@@H](C)O)[C@@H](C)O)C(C)C)C(C)C` [KWKLFKKIGIGAVLKVLTTG] was tested, and the MIC [21] was 3.12 µM (≈ 6.86 µg/mL), the MIC [22] was 8.84 µM (≈ 19.4 µg/mL) and the MIC [23] was 1.1 µM (≈ 2.43 µg/mL). The MIC (Acinetobacter baumannii) was 4.42 µM (≈ 9.71 µg/mL).

With `CC(C)C[C@H](NC(=O)CNC(=O)[C@H](CCCCN)NC(=O)[C@H](CC(C)C)NC(=O)[C@H](CC(N)=O)NC(=O)[C@@H](N)CC(C)C)C(=O)N[C@@H](Cc1ccccc1)C(=O)N[C@@H](CCCCN)C(=O)N[C@@H](CCCCN)C(=O)N[C@H](C(=O)N[C@@H](C)C(=O)N[C@@H](CO)C(=O)N[C@@H](CC(C)C)C(=O)N[C@@H](CC(C)C)C(=O)N[C@H](C(=O)O)[C@@H](C)O)C(C)C` [LNLKGLFKKVASLLT] the MIC (Proteus mirabilis) was ≥ 60 µM, the MIC [24] was 30 µM (≈ 49.4 µg/mL) and the MIC [25] was 7.5 µM (≈ 12.3 µg/mL). For the same molecule, the MIC (Streptococcus pyogenes) was 30 µM (≈ 49.4 µg/mL), the MIC [26] was > 60 µM and the MIC [27] was 15 µM (≈ 24.7 µg/mL). It also gave an MIC [23] of 30 µM (≈ 49.4 µg/mL), an MIC [16] of 30 µM (≈ 49.4 µg/mL) and an MIC [28] of 30 µM (≈ 49.4 µg/mL). The MIC [11] was 30 µM (≈ 49.4 µg/mL).

`CC[C@H](C)[C@H](NC(=O)[C@@H]1CCCN1C(=O)[C@H](CCCN=C(N)N)NC(=O)[C@@H]1CCCN1C(=O)[C@H](CCCN=C(N)N)NC(=O)[C@H](Cc1ccc(O)cc1)NC(=O)[C@H](CC(N)=O)NC(=O)[C@@H]1CCCN1C(=O)[C@H](CCCN=C(N)N)NC(=O)[C@@H]1CCCN1C(=O)[C@@H](N)CCCN=C(N)N)C(=O)N[C@@H](Cc1ccc(O)cc1)C(=O)N[C@@H](CCCN=C(N)N)C(=O)N1CCC[C@H]1C(N)=O` [RPRPNYRPRPIYRP] gave an MIC (Escherichia coli D21) of 2.12 µM (≈ 3.9 µg/mL), an MIC (Micrococcus luteus Ml11) of 5.44 µM (≈ 9.99 µg/mL) and an MIC [29] of 4.24 µM (≈ 7.8 µg/mL). For the same molecule, the MIC [30] was 4.24 µM (≈ 7.8 µg/mL), the MIC [23] was 1.06 µM (≈ 1.95 µg/mL) and the MIC [31] was 4.24 µM (≈ 7.8 µg/mL). The MIC (Bacillus megaterium Bm11) was 1.03 µM (≈ 1.9 µg/mL) and the MIC [32] was 0.533 µM (≈ 0.98 µg/mL).

For `CC[C@H](C)[C@H](NC(=O)[C@H](CCCN=C(N)N)NC(=O)[C@H](CCC(=O)O)NC(=O)[C@H](CC(=O)O)NC(=O)CNC(=O)[C@H](CCCN=C(N)N)NC(=O)[C@H](CC(C)C)NC(=O)[C@@H](N)[C@@H](C)O)C(=O)N[C@@H](CC(C)C)C(=O)N[C@@H](CO)C(=O)N[C@H](C(=O)N[C@@H](CC(C)C)C(=O)N[C@@H](CCCN=C(N)N)C(=O)N[C@@H](Cc1cnc[nH]1)C(=O)N[C@@H](CCC(N)=O)C(=O)N[C@@H](CC(N)=O)C(=O)N[C@@H](CC(C)C)C(=O)N[C@@H](CC(C)C)C(=O)N[C@@H](CCCCN)C(=O)N[C@@H](CCC(=O)O)C(=O)O)[C@@H](C)CC` [TLRGDERILSILRHQNLLKE], the MIC [33] was 30 µM (≈ 72.1 µg/mL) and the MIC [34] was ≥ 100 µM.
